# Measurements: publication PMC7269486, “MK-571, a Cysteinyl Leukotriene Receptor 1 Antagonist, Inhibits Hepatitis C Virus Replication” (Antimicrobial Agents and Chemotherapy, 2020)
# “And” between values parts separate entries of the source, which are not always exact repeats. Identical values can stand only once. “Also recorded” adds a separate entry of the source. Like-named read-outs stand apart in the source and are kept apart here.
# Assays:
# [1] = test system: HCV genotype 1b subgenomic replicon; assay: Anti-HCV activity in the subgenomic replicon model (HCV-SGR RNA by RT-qPCR in Huh7.5-SGR cells); assay type: cell-based, Hepatitis C virus; conditions: for effect on the anti-HCV activity of MK-571: compound added to MK-571 (10 or 50 μM); for effect on the anti-HCV activity of MK-571 / effect on HCV-SGR RNA levels / replication: increasing concentrations; for effect on HCV-SGR RNA levels / replication: compound alone; for effect of MRP-1 inhibitor on MK-571 anti-HCV activity: added to MK-571 (probenecid 1 mM), data not shown
# Procedure: Plasmid I389-Neo/NS3-3′/5.1, which contains a neomycin resistance gene and an HCV genotype 1b subgenome, was kindly provided by Ralf Bartenschlager (University of Heidelberg, Heidelberg, Germany). This plasmid was transfected into Huh7.5 cells to generate Huh7.5-SGR cells stably harboring an HCV genotype 1b subgenomic replicon (SGR).
# Huh7.5 cells stably harboring an HCV genotype 1b bicistronic replicon (I389-Neo/NS3-3′/5.1) were seeded at the density of 5,000 cells/well in a 96-well plate. The cells were treated for 48 h with the tested compounds diluted in complete DMEM containing 1% dimethyl sulfoxide (DMSO) with 0.5 mg/ml of G418. Total RNA was extracted using the RNeasy 96 kit (Qiagen, Hilden, Germany). HCV-SGR RNA levels were measured by reverse transcriptase quantitative PCR (RT-qPCR) using the TaqMan technology with HCV-specific primers (forward primer, 5′-CGC CCA AAC CAG AAT ACG A-3′; and reverse primer, 5′-AGATAGTACACCCTTTTGCCAGATG-3′) and a qPCR probe (5′-6-carboxyfluorescein [FAM]-CAA TGT GTC AGT CGG-6-carboxytetramethylrhodamine [TAMRA]-0.3′). The data were analyzed with the 2^−ΔΔ^CT method, with all samples normalized to glyceraldehyde-3-phosphate dehydrogenase (GAPDH) mRNA. All experiments were performed in triplicate. HCV-SGR RNA relative quantities were plotted against compound concentrations and fitted with a four-parameter logistic curve with SigmaPlot v11 software. EC50s were determined from the curves.
# [2] = Cytotoxicity assay (CellTiter 96 AQueous One); assay type: cell-based; conditions: human
# Procedure: Assessment of the compound cytotoxicity was performed with the CellTiter 96 AQueous One assay (Promega), according to the manufacturer’s instructions. Huh7.5 cells were seeded at a density of 5,000 cells/well in a 96-well plate and incubated 24 h before addition of increasing concentrations of the indicated compounds. After 48 h, cells were incubated 4 h in the presence of the CellTiter 96 AQueous One solution reagent, and absorbance was measured at 490 nm.
# [3] = test system: Huh7.5-SGR cells harboring HCV-SGR with neomycin resistance gene; assay type: cell-based, Hepatitis C virus; conditions: 100 μM MK-571, 2 weeks, no G418
# Excerpt: FIG 2 Anti-HCV activity of MK-571. (A) Dose-response curve and (B) fold decrease of MK-571 antiviral activity in Huh7.5 cells stably expressing an HCV genotype 1b subgenomic replicon. Data are shown as means ± SD from at least two independent experiments performed in triplicate. […]
# We next examined HCV-SGR clearance during 2 weeks of treatment with MK-571. […]
# [4] = test system: HCV-J6/JFH1 (genotype 2a/2a full-length infectious model); assay: Antiviral activity in the HCV infectious model (luciferase reporter); assay type: cell-based, Hepatitis C virus; conditions: Huh7.5 cells infected with J6/JFH1, increasing concentrations, 48 h after infection
# Procedure: The anti-HCV activity of MK-571 was then confirmed in a chimeric genotype 2a/2a HCV full-length infectious model (HCV-J6/JFH1) containing a luciferase reporter gene. Huh7.5 cells were infected with HCV-J6/JFH1 in the presence of an increasing concentration of MK-571, and luciferase activity was quantified 48 h after infection. […] However, MK-571 anti-HCV activity appeared higher in the genotype 1b HCV-SGR than the genotype 2a HCV full-length infectious model (Fig. 2D).
# Huh7.5 cells were incubated 24 h before infection. Then, cells were infected with HCV (J6/JFH1 strain) at an mutiplicity of infection (MOI) of 0.2 during 8 h in the presence of drugs. HCV-infected cells were washed with phosphate-buffered saline (PBS) and incubated for 48 h in fresh medium containing the drugs. Then, luciferase activity was measured and plotted against compound concentrations.
# [5] = Huh7.5 cells, 48 h, read-out: CC50 in Huh7.5 cells
Molecule,effect on the anti-HCV activity of MK-571 ([1]; Huh7.5-SGR cells),effect on HCV-SGR RNA levels / replication ([1]; Huh7.5-SGR cells),"CC50 at 48 h [2, 5] [µM]",other results
CCC(CC)(CC(=O)Nc1cccc(/C=C/c2nc(C3CCC3)cs2)c1)C(=O)O [Cinalukast],completely reversed its antiviral effect; also recorded: full reversion achieved at the highest dose tested,modest proviral effect on HCV RNA replication,> 100,
CCCCC/C=C\C\C=C/C=C/C=C/[C@@H](SC[C@H](N)C(=O)NCC(=O)O)[C@@H](O)CCCC(=O)O [LTD4],completely reversed its antiviral effect; also recorded: reversed the antiviral effect of 50 μM of MK-571 in a dose-dependent manner,did not exert any effect on HCV replication,,"concentration achieving complete reversion of the antiviral effect of MK-571 ([1]; in the presence of 50 μM MK-571, Huh7.5-SGR cells): 1 µM"
CN(C)C(=O)CCSC(SCCC(=O)O)c1cccc(/C=C/c2ccc3ccc(Cl)cc3n2)c1 (stereo not shown) [MK-571],,,> 100,"cell growth in the absence of G418 [3]: cell growth was not significantly affected; effect on HCV-J6/JFH1 replication (luciferase activity) [4]: dose-dependent decrease of HCV-J6/JFH1 RNA replication; also recorded: reduced the replication of the HCV full-length J6/JFH1 model in a dose-dependent manner; fold decrease of HCV-SGR RNA levels ([1]; 50 μM MK-571 alone, Huh7.5-SGR cells): 12 fold and ~11 fold; fold increase of the anti-HCV effect of telaprevir ([1]; 50 μM MK-571 in combination with 1 μM telaprevir, Huh7.5-SGR cells): approximately 3 fold; antiviral effect compared with telaprevir ([1]; 50 μM MK-571 vs 1 μM telaprevir, Huh7.5-SGR cells): equivalent to the effect of 1 μM of telaprevir; EC50 ([1]; Hepatitis C virus, Huh7.5, 48 h, read-out: EC50 for decrease of HCV-SGR RNA): 9 ± 0.3 µM; maximum HCV RNA level reduction ([1]; Huh7.5-SGR cells, genotype 1b replicon): ~1 log10"
CC(C)c1ccc2c(c1)c(SC(C)(C)C)c(CC(C)(C)C(=O)O)n2Cc1ccc(Cl)cc1 [MK-886],,None of them affected HCV-SGR replication,,
O=C(O)c1ccccc1Nc1cccc(OCc2ccc3ccccc3n2)c1 [SR2640],completely reversed its antiviral effect; also recorded: not only reversed its anti-HCV activity but also increased HCV replication at the highest concentrations tested,increased HCV-SGR RNA levels in a dose-dependent manner,33.4 ± 3.9,"maximum increase of HCV-SGR RNA levels ([1]; SR2640 alone, at 20 μM, Huh7.5-SGR cells): 11 fold"
CCC[C@H](NC(=O)[C@@H]1[C@H]2CCC[C@H]2CN1C(=O)[C@@H](NC(=O)[C@@H](NC(=O)c1cnccn1)C1CCCCC1)C(C)(C)C)C(=O)C(=O)NC1CC1 [Telaprevir],,,,CC50 at 48 h [2]: > 20 µM
COc1cc(C(=O)NS(=O)(=O)c2ccccc2C)ccc1Cc1cn(C)c2ccc(NC(=O)OC3CCCC3)cc12 [Zafirlukast],completely reversed its antiviral effect; also recorded: full reversion achieved at the highest dose tested,modest proviral effect on HCV RNA replication,> 100,
CCCN(CCC)S(=O)(=O)c1ccc(C(=O)O)cc1 [probenecid],,,,"effect of MRP-1 inhibitor on MK-571 anti-HCV activity [1]: did not modify its anti-HCV activity; also recorded: lack of effect on MK-571 antiviral activity; effect on HCV-SGR RNA levels ([1]; probenecid 1 mM alone, Huh7.5-SGR cells): had no effect on HCV replication; also recorded: none of these two compounds reduced HCV-SGR RNA levels; also recorded: lack of anti-HCV activity"
CC(c1cc2ccccc2s1)N(O)C(N)=O (stereo not shown) [zileuton],,None of them affected HCV-SGR replication,,
apigenin homodimer [APN],,,,"effect of MRP-1 inhibitor on MK-571 anti-HCV activity [1]: lack of effect on MK-571 antiviral activity; effect on HCV-SGR RNA levels ([1]; apigenin homodimer 0.1 μM alone, Huh7.5-SGR cells): had no effect on HCV replication; also recorded: none of these two compounds reduced HCV-SGR RNA levels; also recorded: lack of anti-HCV activity"
